According to patent US4287191A, “Novel salicylanilides and microbiocidal compositions and uses thereof” (The Research Foundation of State University of New York, priority 1980, dated 1981):
Values after ≈ are worked out from the molar mass of the structure shown. Where two headings read alike, the source gives them in different places.

How the values were obtained:
[1] = system: Actinomyces viscosus; assay: Minimum concentration which will completely inhibit growth, Actinomyces viscosus; type: cell-based; conditions: A.viscosus, growth medium, read-out: Min. Conc. (minimum concentration which will completely inhibit growth)
[2] = system: S. mutans; assay: Minimum concentration which will completely inhibit growth, S. mutans; type: cell-based; conditions: Streptococcus mutans, procedure of Example 6
Method: 5-n-octanoyl-2',3',4',5',6'pentafluorosalicylanilide is tested for effectiveness against S. mutans essentially in accordance with the procedure of Example 6.

[3] = system: S.mutans; assay: Bactericidal effects against established dental plaque (nichrome wires), S.mutans; type: cell-based; conditions: Streptococcus mutans, 2 min, read-out: Minimum Concentration Required for Complete Bactericidal Effect
Method: (§1) In vitro plaques are grown on no. 20 nichrome wires by fixing the wires to culture tube closures to suspend the wires into a complex culture medium supplemented with 5% by wt of sucrose and 0.005% sodium carbonate. Separate cultures are initially inoculated with A.viscosus and S.mutans and the wires are transferred daily to fresh medium until the wire-adherent microorganisms form well established plaques. All cultures are incubated at 37 degrees C. Plaque coated wires are then immersed in a solution of composition to be tested. The compositions tested are AN-10 and Chlorhexidine. The immersion time is two minutes. The solution in which the composition is dissolved is the same solution used to dissolve the composition in the previous example. The plaque is then rinsed with distilled water and transferred to fresh medium. The lack of growth in the fresh medium is considered as an indication that the microorganisms have been killed. Further plaque coated wires are treated as previously described until sufficient information is obtained to determine the minimum concentration of composition required to kill the microorganisms.

[4] = system: S.sanguis; assay: Plaque growth inhibition in vitro on bovine tooth slabs, S.sanguis; type: cell-based, Streptoccus sanguis; conditions: for IC50: 2 min slab exposure, about 24 h incubation, anaerobic, reliability + or -80% or better; for % Inhibition @ Mol.Conc.: @ 1 × 10^-3 Mol.Conc.
Method: (§2) The composition prepared in example 2 above is tested in vitro for plaque inhibition in comparison with prior art compounds. The test used is set forth in detail in Comparison of Antiplaque Agents Using an In Vitro Assay Reflecting Oral Conditions by R. T. Evans et al, Journal of Dental Research, June 1977.
(§3) In summary bovine mandibles, obtained immediately after slaughter, are cut into 4×8 mm slabs and sterilized in a 0.15 M NaCl solution buffered at a pH of 7.5 with 0.02 M sodium phosphate (PBS soln.) Before use the slabs are coated with sterile saliva and then rinsed twice in sterile PBS. The slabs are then placed in small plastic petri dishes containing various concentrations of the compositions to be tested. The test solution used in accordance is a solution of the composition in a mixture of 20% by volume of ethanol, 40% by volume of propylene glycol and 40% by volume of a pH 8 aqueous buffer solution containing mono and di sodium phosphates. The slabs are left in the solution of the composition for two minutes and then rinsed in sterile PBS solution. After rinsing, each slab is placed in a 10×75 mm cotton stoppered glass culture tube containing 1 ml of sucrose-broth culture medium which is then innoculated with a 24 hour culture of the desired microorganism standardized to an optical density (OD) 540 of 1.0 for A. naeslundii and S. sanguis and of 0.75 for A. viscosus and S. mutans. 50 μl of the inoculation medium is used. A. viscosus is incubated under aerobic conditions and the others are incubated under anaerobic conditions (5% CO2 and 95% H2). After incubation for about 24 hours the nonadherent organisms are removed and the tube is rinsed twice with 0.5 ml of PBS and the washings combined with the nonadherent organisms.
(§4) The tooth slabs are then transferred to 1 ml of 0.1 N NaOH and 1 ml of 0.1 N NaOH is also added to the glass culture tubes. The slabs and tubes are then sonically agitated, if necessary to suspend the adherent organisms. The optical density of each of the three fractions is then measured on a spectophotometer. The tests are repeated with varying concentrations of the compositions being tested until growth inhibition curves can be developed. The 50% growth inhibition dosages (ID50) are then determined with a reliability of + or -80% or better.

[5] = system: Staphylococcus aureus; assay: Minimum concentration to completely inhibit growth, Staphylococcus aureus; type: cell-based; conditions: procedure of Example 6
Method: AN-10 is tested for effectiveness against the bacterium Staphylococcus aureus in accordance with the procedure set forth in Example 6.

[6] = system: A.viscosus; assay: Plaque growth inhibition in vitro on bovine tooth slabs, A.viscosus; type: cell-based, Actinomyces viscosus; conditions: for IC50: Actinomyces viscosus, 2 min slab exposure, about 24 h incubation, aerobic, reliability + or -80% or better
Method: as §2, §3, §4

[7] = system: A.naeslundii; assay: Plaque growth inhibition in vitro on bovine tooth slabs, A.naeslundii; type: cell-based, Actinomyces naeslundii; conditions: for IC50: Actinomyces naeslundii, 2 min slab exposure, about 24 h incubation, anaerobic, reliability + or -80% or better
Method: as §2, §3, §4

[8] = Acute oral toxicity of AN-10 (single dose, gavage); type: in vivo
Method: Sixteen female white rats averaging 265 grams in weight were fasted overnight and divided into four groups of four animals each. In one group each animal received, by gavage tube, 4 ml of an aqueous solution of 1% methylcellulose, the drug delivery vehicle. This group was the control group. The remaining three groups received doses of 50, 750, and 2000 mg/kg of AN-10 in 4-ml aqueous suspension, respectively.
This animal had received the 50 mg/kg dose.
From this experiment it can be concluded that the LD50 for AN-10 by the single dose oral route is greater than 2000 mg/kg in Osborne-Mendel white rats.

[9] = system: S.mutans; assay: Plaque growth inhibition in vitro on bovine tooth slabs, S.mutans; type: cell-based, Streptococcus mutans; conditions: for IC50: Streptococcus mutans, 2 min slab exposure, about 24 h incubation, anaerobic, reliability + or -80% or better
Method: as §2, §3, §4

[10] = system: A.viscosus; assay: Bactericidal effects against established dental plaque (nichrome wires), A.viscosus; type: cell-based; conditions: Actinomyces viscosus, 2 min, read-out: Minimum Concentration Required for Complete Bactericidal Effect
Method: as §1

[11] = background statement; cited from earlier work
[12] = S.mutans established plaque, immersion time two minutes
[13] = A.viscosus established plaque, immersion time two minutes

Compound `CCCCCCCCCC(=O)c1ccc(O)c(C(=O)Nc2ccc(Br)cc2)c1` [5-n-decoyl-4'-bromosalicylanilide] has an MIC [1] of 0.125 µg/mL (≈ 0.28 µM).
In the case of `CCCCCCCCCCCC(=O)c1ccc(O)c(C(=O)Nc2cccc(C(F)(F)F)c2)c1` [5-n-dodecoyl-3'-trifluoromethylsaliclyanilide], the MIC [1] is reported as 0.5 to 1 µg/mL (≈ 1.08 to 2.16 µM).
`CCCCCCCCCCCC(=O)c1ccc(O)c(C(=O)Nc2ccc(Br)cc2)c1` [5-n-dodecoyl-4'-bromosalicylanilide] showed an MIC [1] of 0.05 µg/mL (≈ 0.105 µM).
In the case of `CCCCCCCCCCCC(=O)c1ccc(O)c(C(=O)Nc2ccc([N+](=O)[O-])cc2)c1` [5-n-dodecoyl-4'-nitrosalicylanilide], the MIC [1] is reported as 0.05 µg/mL (≈ 0.113 µM).
With `CCCCCCCC(=O)c1ccc(O)c(C(=O)Nc2c(F)c(F)c(F)c(F)c2F)c1` [5-n-octanoyl-2',3',4',5',6'pentafluorosalicylanilide] the MIC [2] was about 0.5 µg/mL (≈ 1.16 µM).
For `CCCCCCCC(=O)c1ccc(O)c(C(=O)Nc2ccc([N+](=O)[O-])cc2)c1` [5-n-octoyl-4'-nitrosalicylanilide], the MIC [1] was 0.125 µg/mL (≈ 0.325 µM).
Work on `CCCCCCCCCC(=O)c1ccc(O)c(C(=O)Nc2ccc([N+](=O)[O-])cc2)c1` [AN-10, 5-n-decanoyl-4'-nitrosalicylanilide] yielded an MBC [3, 12] of 62.5 µg/mL (≈ 152 µM), an IC50 ([4]; read-out: ID50 Adherent Growth) of 670 µM and an IC50 ([4]; read-out: ID50 Total Growth) of 370 µM. The “% Inhibition @ Mol.Conc.” value [4] was 86%, the MIC [5] was under 10 µg/mL and the “% Inhibition @ Mol.Conc.” value ([6]; @ 1 × 10^-4 Mol.Conc.) was 96%. For the same compound, the IC50 ([6]; read-out: ID50 Adherent Growth) was 70 µM, the IC50 ([6]; read-out: ID50 Total Growth) was 73 µM and the “% Inhibition @ Mol.Conc.” value ([7]; @ 3.3 × 10^-4 Mol.Conc.) was 96%. The IC50 ([7]; read-out: ID50 Adherent Growth) was 43 µM, the IC50 ([7]; read-out: ID50 Total Growth) was 83 µM and the “deaths within the first week following single dose” value ([8]; 50, 750 and 2000 mg/kg oral, four rats each, the one death (50 mg/kg) attributed to trauma of administration) was “only one animal died”. For the same compound, the LD50 ([8]; rat, in vivo, single dose oral route, female Osborne-Mendel white rats) was over 2000 mg/kg, the “% Inhibition @ Mol.Conc.” value ([9]; @ 1 × 10^-3 Mol.Conc.) was 59% and the IC50 ([9]; read-out: ID50 Adherent Growth) was 23000 µM. For the same compound, the IC50 ([9]; read-out: ID50 Total Growth) was 1600 µM and the MBC [10, 13] was 125 µg/mL (≈ 303 µM).
Compound `[H]/N=C(\N/C(=N/[H])NCCCCCCNC(=N)NC(=N)Nc1ccc(Cl)cc1)Nc1ccc(Cl)cc1` [CLHX, Chlorhexidine] has an MBC [3, 12] of 250 µg/mL (≈ 495 µM), an IC50 ([4]; read-out: ID50 Adherent Growth) of 85000 µM and an IC50 ([4]; read-out: ID50 Total Growth) of 390 µM. For the same compound, the “% Inhibition @ Mol.Conc.” value [4] was 70%, the “% Inhibition @ Mol.Conc.” value ([6]; @ 1 × 10^-3 Mol.Conc.) was 85% and the IC50 ([6]; read-out: ID50 Adherent Growth) was 29 µM. The IC50 ([6]; read-out: ID50 Total Growth) was 23 µM, the “% Inhibition @ Mol.Conc.” value ([7]; @ 1 × 10^-3 Mol.Conc.) was 78% and the IC50 ([7]; read-out: ID50 Adherent Growth) was 5100 µM. For the same compound, the IC50 ([7]; read-out: ID50 Total Growth) was 4400 µM, the “% Inhibition @ Mol.Conc.” value ([9]; @ 1 × 10^-3 Mol.Conc.) was 95% and the IC50 ([9]; read-out: ID50 Adherent Growth) was 97 µM. The IC50 ([9]; read-out: ID50 Total Growth) was 86 µM and the MBC [10, 13] was 500 µg/mL (≈ 989 µM).
For `O=C(Nc1cccc(C(F)(F)F)c1)c1cc(Br)cc(Br)c1O` [SBF-1, Fluorophene], the “% Inhibition @ Mol.Conc.” value ([6]; @ 3.3 × 10^-3 Mol.Conc.) was 65% and the “% Inhibition @ Mol.Conc.” value ([9]; @ 2 × 10^-3 Mol.Conc.) was 86%.
In the case of `O=C(Nc1ccc(Br)cc1)c1cc(Br)cc(Br)c1O` [TBS, Tribromosalan], the MBC [3] is reported as 1000 µg/mL (≈ 2220 µM), the “% Inhibition @ Mol.Conc.” value [4] is reported as 46% and the “% Inhibition @ Mol.Conc.” value ([6]; @ 1 × 10^-3 Mol.Conc.) is reported as 53%. For the same compound, the “% Inhibition @ Mol.Conc.” value ([7]; @ 1.5 × 10^-3 Mol.Conc.) was 86%, the “% Inhibition @ Mol.Conc.” value ([9]; @ 1.5 × 10^-3 Mol.Conc.) was 46% and the MBC [10] was 500 µg/mL (≈ 1110 µM).
For tetrachlorosalicylanilide, the “allergic reactions in man” value [11] is listed as “allergic reactions in man”.
